According to patent publication US20100086931A1, “METHOD FOR ASSAYING ACTION OF ANTITUMOR AGENT USING DECREASE IN GENE EXPRESSION LEVEL AS INDEX” (Eisai R&D Management Co., Ltd., priority 2007, published 2010):

Tested on: peripheral blood mononuclear cells (PBMC)
Experiment: Microarray analysis (Human Exon 1.0 ST Array) of gene expression in PBMC
Assay type: cell-based
Details: vs untreated group
Description: Since it is not easy to obtain a cancer tissue clinically, the measurement of the marker in hemocytes readily obtainable in peripheral blood would be more useful. It was then examined whether the marker gene obtained in cancer cells could change in peripheral mononuclear cells in a similar manner as observed in the cancer cells. Specifically peripheral blood was taken from three normal individuals (volunteers) and peripheral mononuclear cells were purified and treated with (8E,12E,14E)-7-((4-Cycloheptylpiperazin-1-yl)carbonyl)oxy-3,6,16,21-tetrahydroxy-6,10,12,16,20-pentamethyl-18,19-epoxytricosa-8,12,14-trien-11-olide for six hours, followed by measurement of change in expression of the gene by a microarray (Human Exon 1.0 ST Array: Affymetrix).
Ficoll-Paque PLUS solution (Amersham, 17-1440-02) was slowly added to the blood taken (with heparin added) from healthy individuals to form a layer underneath the blood (15 ml of Ficoll-Paque PLUS solution was added to 25 ml of blood). After the mixture was centrifuged at 1500 rpm for 30 min, the upper part containing platelets was removed and then a layer containing mononuclear cells was transferred to another tube. The cells were suspended in PBS and centrifuged at 1500 rpm for 5 min, followed by removal of the supernatant. After these steps were repeated twice, the cells were again suspended in RPMI1640 (containing 10% FBS, penicillin, and streptomycin) and the number of the cells was then counted.
PBMC was suspended in RPMI1640 medium (containing 10% FBS, penicillin, and streptomycin) to 5×10^6 cells/ml and 1 ml of the suspension was plated per well of a 24-well plate. Immediately, 111 μl of 10 times-concentrated (8E,12E,14E)-7-((4-Cycloheptylpiperazin-1-yl)carbonyl)oxy-3,6,16,21-tetrahydroxy-6,10,12,16,20-pentamethyl-18,19-epoxytricosa-8,12,14-trien-11-olide was added to the well (six wells per each concentration tested). The cells were then cultured in an incubator with 5% carbon dioxide gas at 37° C. Three hours later, the supernatant was collected and centrifuged at 1500 rpm for five minutes. TRI reagent (SIGMA) (1 ml) was added to each well of the plate from which the supernatant was removed to harvest the cells, which was added to the centrifuged pellet to dissolve. RNA was purified in accordance with the protocol of TRI reagent. RNA was further purified using RNeasy (QIAGEN) and, in accordance with the protocol, DNase I was added to the samples during the procedure. Absorbance at 260 nm was measured to quantify an amount of RNA.
Ribosomal RNA was removed from 1 μg of each RNA by using RiboMinus Human/Mouse Transcriptome Isolation Kit (Invitrogen). Single stranded cDNA synthesis, double stranded cDNA synthesis, cRNA synthesis, second single stranded cDNA synthesis, cDNA fragmentation, and cDNA labeling in order were carried out for total RNA from which ribosomal RNA was removed, using GeneChip Whole Transcript Sense Target Labeling and Control Reagents (Affymetrix) to make a cDNA probe. Subsequently, the cDNA probe was used for hybridization with Human Exon 1.0 ST Array (Affymetrix). The array was washed and stained, and luminescence intensity was measured by a scanner.
The expression level of the gene was quantified by using Expression Console Ver. 1.0 (Affymetrix) with Summarization Method and Normalization Method being set to “Median polish as used in RMA” and “None”, respectively.
Genes showing the change in the expression of the gene in both groups with the 10 nM treatment and the 30 nM treatment is, compared to that in the […], less than 25%; the expression level of the gene in the untreated group is more than 100; both P values of t-test for the 10 nM treated group and the untreated group, and for the 30 nM treated group and the untreated group are less than 5% were picked out. (Table 4). […]

CCC(O)C(C)C1OC1CC(C)(O)/C=C/C=C(\C)C1OC(=O)CC(O)CCC(C)(O)C(OC(=O)N2CCN(C3CCCCCC3)CC2)/C=C/C1C (centres unmarked) [E7107, (8E,12E,14E)-7-((4-Cycloheptylpiperazin-1-yl)carbonyl)oxy-3,6,16,21-tetrahydroxy-6,10,12,16,20-pentamethyl-18,19-epoxytricosa-8,12,14-trien-11-olide]
Fold Change in expression level of ARFGAP3 (Transcript Cluster 3962587) (10 nM): 0.21 | Fold Change in expression level of C13orf31 (Transcript Cluster 3487600) (10 nM): 0.21 | Fold Change in expression level of CD274 (Transcript Cluster 3161082) (10 nM): 0.19 | Fold Change in expression level of CTSL1 (Transcript Cluster 3178147) (10 nM): 0.09 | Fold Change in expression level of DOCK4 (Transcript Cluster 3068097) (10 nM): 0.16 | Fold Change in expression level of ENG (Transcript Cluster 3226097) (10 nM): 0.24 | Fold Change in expression level of GK (Transcript Cluster 3972929) (10 nM): 0.19 | Fold Change in expression level of KMO (Transcript Cluster 2388085) (10 nM): 0.13 | Fold Change in expression level of KYNU (Transcript Cluster 2508520) (10 nM): 0.10 | Fold Change in expression level of LAIR1 (Transcript Cluster 3870824) (10 nM): 0.21 | Fold Change in expression level of NRIP3 (Transcript Cluster 3362159) (10 nM): 0.15 | Fold Change in expression level of OLR1 (Transcript Cluster 3444043) (10 nM): 0.09 | Fold Change in expression level of P2RX4 (Transcript Cluster 3434760) (10 nM): 0.22 | Fold Change in expression level of PIK3R5 (Transcript Cluster 3744680) (10 nM): 0.23 | Fold Change in expression level of PLA2G7 (Transcript Cluster 2955827) (10 nM): 0.12 | Fold Change in expression level of RCN1 (Transcript Cluster 3325503) (10 nM): 0.09 | Fold Change in expression level of SEMA6B (Transcript Cluster 3846860) (10 nM): 0.23 | Fold Change in expression level of SLAMF7 (Transcript Cluster 2363202) (10 nM): 0.15 | Fold Change in expression level of SLC7A11 (Transcript Cluster 2786322) (10 nM): 0.13 | Fold Change in expression level of SLC37A2 (Transcript Cluster 3354443) (10 nM): 0.21 | Fold Change in expression level of SLC41A2 (Transcript Cluster 3469180) (10 nM): 0.21 | Fold Change in expression level of SLC43A2 (Transcript Cluster 3740367) (10 nM): 0.22 | Fold Change in expression level of SLC43A3 (Transcript Cluster 3373845) (10 nM): 0.17 | Fold Change in expression level of STEAP4 (Transcript Cluster 3060332) (10 nM): 0.20 | Fold Change in expression level of TNFAIP6 (Transcript Cluster 2510464) (10 nM): 0.18 | Fold Change in expression level of TNFSF15 (Transcript Cluster 3222128) (10 nM): 0.10 | Fold Change in expression level of TRAF1 (Transcript Cluster 3223738) (10 nM): 0.19 | Fold Change in expression level of TRAPPC4 (Transcript Cluster 3351775) (10 nM): 0.23 | Fold Change in expression level of ARFGAP3 (Transcript Cluster 3962587) (30 nM): 0.14 | Fold Change in expression level of C13orf31 (Transcript Cluster 3487600) (30 nM): 0.19 | Fold Change in expression level of CD274 (Transcript Cluster 3161082) (30 nM): 0.18 | Fold Change in expression level of CTSL1 (Transcript Cluster 3178147) (30 nM): 0.09 | Fold Change in expression level of DOCK4 (Transcript Cluster 3068097) (30 nM): 0.14 | Fold Change in expression level of ENG (Transcript Cluster 3226097) (30 nM): 0.20 | Fold Change in expression level of GK (Transcript Cluster 3972929) (30 nM): 0.21 | Fold Change in expression level of KMO (Transcript Cluster 2388085) (30 nM): 0.13 | Fold Change in expression level of KYNU (Transcript Cluster 2508520) (30 nM): 0.10 | Fold Change in expression level of LAIR1 (Transcript Cluster 3870824) (30 nM): 0.14 | Fold Change in expression level of NRIP3 (Transcript Cluster 3362159) (30 nM): 0.13 | Fold Change in expression level of OLR1 (Transcript Cluster 3444043) (30 nM): 0.04 | Fold Change in expression level of P2RX4 (Transcript Cluster 3434760) (30 nM): 0.22 | Fold Change in expression level of PIK3R5 (Transcript Cluster 3744680) (30 nM): 0.21 | Fold Change in expression level of PLA2G7 (Transcript Cluster 2955827) (30 nM): 0.15 | Fold Change in expression level of RCN1 (Transcript Cluster 3325503) (30 nM): 0.17 | Fold Change in expression level of SEMA6B (Transcript Cluster 3846860) (30 nM): 0.22 | Fold Change in expression level of SLAMF7 (Transcript Cluster 2363202) (30 nM): 0.14 | Fold Change in expression level of SLC7A11 (Transcript Cluster 2786322) (30 nM): 0.06 | Fold Change in expression level of SLC37A2 (Transcript Cluster 3354443) (30 nM): 0.23 | Fold Change in expression level of SLC41A2 (Transcript Cluster 3469180) (30 nM): 0.17 | Fold Change in expression level of SLC43A2 (Transcript Cluster 3740367) (30 nM): 0.18 | Fold Change in expression level of SLC43A3 (Transcript Cluster 3373845) (30 nM): 0.14 | Fold Change in expression level of STEAP4 (Transcript Cluster 3060332) (30 nM): 0.22 | Fold Change in expression level of TNFAIP6 (Transcript Cluster 2510464) (30 nM): 0.19 | Fold Change in expression level of TNFSF15 (Transcript Cluster 3222128) (30 nM): 0.07 | Fold Change in expression level of TRAF1 (Transcript Cluster 3223738) (30 nM): 0.17 | Fold Change in expression level of TRAPPC4 (Transcript Cluster 3351775) (30 nM): 0.21
